Ends that are not written are not given here. * marks the point of attachment. For = O=C*
Experiments:
Gram-negative = conditions: ref number not given; cited from earlier work
From the text: The present study sheds more light on the multiple biological activities of BacSp222 and further makes the image of this peptide even more complex.

[1] = Dynamic light scattering, hydrodynamic radius; assay type: physicochemical; conditions: BacSp222 alone at 5, 50, 500 μg/mL, DLS, PBS, 37 °C
Description: For dynamic light scattering experiments, (1) the solution of PBS without Ca^2+ and Mg^2+ or PBS without Ca^2+ and Mg^2+ with (2) 50 μg/mL LPS O55:B5 (IEC), (3) 50 μg/mL LPS O111:B4 (IEC), (4) BacSp222 at concentration 5, 50, and 500 μg/mL, or (5) 50 μg/mL LPS O55/B5 (IEC) + BacSp222 at concentration 5, 50, and 500 μg/mL were incubated for 15 min at 37 °C. Then, the hydrodynamic radius of the LPS and BacSp222 molecules, as well as LPS-BacSp222 complexes, was determined by dynamic light scattering (DLS) on the Prometheus Panta apparatus (NanoTemper, Munich, Germany). Prometheus Standard Capillaries (NanoTemper, Munich, Germany) were used in the experiments, and the measurements were taken at 37 °C. The results were processed by the instrument software (Prometheus Panta Software).

[2] = system: proenzyme Factor C from amebocyte lysate; experiment: Residual LPS activity, amebocyte lysate test (Pierce Chromogenic Endotoxin Quant Kit); assay type: biochemical; conditions: 4 μg BacSp222 preincubated with 3 pg LPS O111:B4 standard, 15 min, 37 °C, 60 μL PBS; 405 nm; mean n = 3
Description: The separate and independent assay used to determine the reduction of the LPS biological potential after incubation with BacSp222 was a test. Briefly, this approach utilizes the ability of endotoxin to activate a proenzyme Factor C from amebocyte lysate and allows for spectrophotometric measurement of the released active enzyme using a chromogenic synthetic peptide substrate. Due to high specificity and sensitivity, this assay is widely used to detect trace amounts of LPS. As presented in Figure , preincubation of LPS with a large excess of BacSp222 reduced LPS activity by ca. 50%.
The residual biological activity of LPS after preincubation with BacSp222 was evaluated by using a commercial assay kit. The reaction was performed for 4 μg of BacSp222, which was preincubated with 3 pg of LPS O111:B4 standard for 15 min at 37 °C in a final volume of 60 μL of PBS without Ca^2+ and Mg^2+. Simultaneously and independently, the same quantity of BacSp222 and LPS as above was preincubated separately as controls. After preincubation, the residual biological activity of endotoxin in all samples was determined using a spectrophotometric Pierce Chromogenic Endotoxin Quant Kit (Thermo, Waltham, MA, USA). The absorbance was measured at 405 nm using a microplate reader Synergy H1 Hybrid plate reader controlled by Gene5 version 2.00.18 software (BIOTEK Instruments, Winooski, VT, USA).

Substance: For-MAGLLRFLLSKGRALYNWAKSHVGKVWEWLKSGATYEQIKEWIENALGWR [BacSp222]
- activity against Gram-negative bacteria (Gram-negative): inactive against Gram-negative ones
- oligomerization in solution [1]: has a tendency to oligomerize in solutions
- reduction of LPS activity [2]: ca. 50%

From article PMC12340957, “Interactions between Lipopolysaccharide and Peptide Bacteriocin BacSp222 Influence Their Biological Activities” (ACS Infectious Diseases, 2025)
